34 compounds from patent US20080280837A1, “Biologically Active Compounds with Anti-Angiogenic Properties” (priority 2004, published 2008) can be followed below.

Assay [1] addresses T1, Human SST5 somatostatin receptor (SSTR5) (Homo sapiens, UniProt P35346).
T1 construct: expressed in transfected cells; host or cells: HEK-293 EBNA
Put plainly: Filter plate assay for SST5 receptor, displacement of [125I]SST-14. In kind it is binding. Summed up:
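HEK-293 EBNA membranes expressing human SST5 (5.5 μg) incubated 60 min at 25 °C with 4 nM [125I]SST-14 and compound in pH 7.5 Tris/EGTA/MgCl2/sucrose buffer. Bound radioactivity collected on PEI-coated glass fiber filters and counted; triplicate 1:5 dilution series from 125 μM, non-specific binding with excess cold ligand.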
A general note: In a radioligand displacement assay an active substance lowers the binding of a labelled ligand.

Assay [2] concerns chicken embryo chorioallantoic membrane (CAM) vasculature. Put plainly: Early chicken embryo chorioallantoic membrane (earlyCAM) assay. The note with it: dose of 10 nmol. The class given is in vivo. Here is the method:
Vein diameter was included as a measure of vessel growth. Where there was more than one major vein branch, the diameters of both were added together to give a total vein diameter. In the control CAM there were two well developed vein branches of similar diameter. In contrast, in the treated CAM there was a single major vein branch. Total vein diameter is 239 pixels in the control CAM, and only 107 pixels in the treated CAM.
When “compound 1” was applied to the CAM, there were dose responsive reductions in CAM growth and vasculature. The effects on CAM growth and vessel parameters were expressed as pixel measures (Table 1) and also as a percentage of the vehicle treated control group (FIG. 1). Vein lengths were reduced at all dose levels of “compound 1”, both in pixel and percentage terms, with a reduction to 67% of control at 5 nmol (p<0.05). […] When artery and vein lengths were combined to give total vessel length there was a significant reduction at the 5 nmol level (FIG. 1; p<0.05). A strong trend to reduced CAM growth with increasing doses of “compound 1” was also present.

T1 sequence (P35346 whole entry): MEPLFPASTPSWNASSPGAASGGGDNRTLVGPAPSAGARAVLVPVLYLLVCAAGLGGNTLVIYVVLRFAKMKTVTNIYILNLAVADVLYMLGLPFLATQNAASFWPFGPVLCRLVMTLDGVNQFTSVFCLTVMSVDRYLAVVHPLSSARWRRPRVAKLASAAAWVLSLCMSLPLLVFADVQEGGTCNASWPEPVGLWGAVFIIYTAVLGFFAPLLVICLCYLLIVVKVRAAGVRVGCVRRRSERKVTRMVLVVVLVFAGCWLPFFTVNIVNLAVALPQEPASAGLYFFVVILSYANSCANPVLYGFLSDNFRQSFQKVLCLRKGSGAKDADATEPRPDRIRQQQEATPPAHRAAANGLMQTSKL

`COC[C@H]1OC(OCc2ccc3ccccc3c2)[C@H](NC(=O)CCCN)[C@@H](OCc2cccc(O)c2)[C@@H]1O` (stereo partly shown) [Compound 146]: in assay [1], the “SSTR5 Inhib 0.5 uM % (inhibition of binding of SST-14 to SSTR5)” value (“SSTR5 Inhib 0.5 uM %” for short) worked out at 40% and the “SSTR5 Inhib 10 uM % (inhibition of binding of SST-14 to SSTR5)” value (shortened to “SSTR5 Inhib 10 uM %”) is 77%. With `COC[C@H]1OC(OCCc2ccccc2)[C@H](NC(=O)CCCN)[C@@H](OCc2cccc(O)c2)[C@@H]1O` (stereo partly shown) [Compound 147], in assay [1], the “SSTR5 Inhib 0.5 uM %” value came out at 40% and the “SSTR5 Inhib 10 uM %” value is recorded as 77%.

On to `CSC1O[C@H](COCc2ccc(-c3ccccc3)cc2)[C@@H](O)[C@@H](OCc2ccc(Cl)cc2)[C@H]1NC(=O)CCCN` (stereo partly shown) [Compound 148], for which, in assay [1], the “SSTR5 Inhib 0.5 uM %” value amounted to 38% and the “SSTR5 Inhib 10 uM %” value amounted to 76%. On to `CSC1O[C@H](COCc2ccccc2)[C@@H](O)[C@@H](OCc2ccc(-c3ccccc3)cc2)[C@H]1NC(=O)CNC(=N)N` (stereo partly shown) [Compound 149], for which, in assay [1], the “SSTR5 Inhib 0.5 uM %” value came out at 35% and the “SSTR5 Inhib 10 uM %” value was 76%. On to `CSC1O[C@H](COCc2ccc(Cl)cc2)[C@@H](O)[C@@H](OCc2ccc3ccccc3c2)[C@H]1NC(=O)CNC(=N)N` (stereo partly shown) [Compound 150], for which, in assay [1], the “SSTR5 Inhib 0.5 uM %” value is given as 42% and the “SSTR5 Inhib 10 uM %” value is given as 76%. In the case of `COC[C@H]1OC(OCc2ccc3ccccc3c2)[C@H](NC(=O)CCNC(=N)N)[C@@H](OCc2ccc3ccccc3c2)[C@@H]1O` (stereo partly shown) [Compound 151], in assay [1], the “SSTR5 Inhib 0.5 uM %” value came to 36% and the “SSTR5 Inhib 10 uM %” value was 76%. Turning to `CO[C@H]1[C@H](O)[C@@H](COCc2ccc(Cl)cc2)OC(OCc2ccc(Cl)cc2)[C@@H]1NC(=O)CCNC(=N)N` (stereo partly shown) [Compound 152], in assay [1], the “SSTR5 Inhib 0.5 uM %” value was 47% and the “SSTR5 Inhib 10 uM %” value is listed as 76%. Regarding `CSC1O[C@H](COCc2ccc(Cl)cc2)[C@@H](O)[C@@H](OCc2ccc3ccccc3c2)[C@H]1NC(=O)CCCN` (stereo partly shown) [Compound 153], in assay [1], the “SSTR5 Inhib 0.5 uM %” value is on record as 34% and the “SSTR5 Inhib 10 uM %” value is recorded as 76%.

For the compound `COC[C@H]1OC(OCc2ccccc2)[C@H](NC(=O)CCCN)[C@H](OCc2ccccc2)[C@@H]1O` (stereo partly shown) [Compound 154], in assay [1], the “SSTR5 Inhib 0.5 uM %” value was 33% and the “SSTR5 Inhib 10 uM %” value turned out to be 76%. Consider `CSC1O[C@H](COCc2ccccc2)[C@@H](O)[C@@H](OCc2ccc(-c3ccccc3)cc2)[C@H]1NC(=O)CCCNC(=N)N` (stereo partly shown) [Compound 155], for which, in assay [1], the “SSTR5 Inhib 0.5 uM %” value amounted to 46% and the “SSTR5 Inhib 10 uM %” value was 76%.

In the case of `CSC1O[C@H](COCc2ccccc2)[C@@H](O)[C@@H](OCc2ccc3ccccc3c2)[C@H]1NC(=O)CCCN` (stereo partly shown) [Compound 156], in assay [1], the “SSTR5 Inhib 0.5 uM %” value was 25% and the “SSTR5 Inhib 10 uM %” value is reported as 76%. For `CO[C@H]1[C@H](O)[C@@H](COCc2ccc(-c3ccccc3)cc2)OC(OCc2ccc(-c3ccccc3)cc2)[C@@H]1NC(=O)CCCNC(=N)N` (stereo partly shown) [Compound 157], in assay [1], the “SSTR5 Inhib 0.5 uM %” value is listed as 20% and the “SSTR5 Inhib 10 uM %” value was 75%. Regarding `CSC1O[C@H](COCc2ccc3ccccc3c2)[C@@H](O)[C@@H](OCc2ccc(Cl)cc2)[C@H]1NC(=O)CCN` (stereo partly shown) [Compound 158], in assay [1], the “SSTR5 Inhib 0.5 uM %” value was found to be 36% and the “SSTR5 Inhib 10 uM %” value is recorded as 75%.

As to `COC[C@H]1OC(OCc2ccc(Cl)cc2)[C@H](NC(=O)CNC(=N)N)[C@H](OCc2ccc3ccccc3c2)[C@@H]1O` (stereo partly shown) [Compound 159], in assay [1], the “SSTR5 Inhib 0.5 uM %” value is reported as 31% and the “SSTR5 Inhib 10 uM %” value was determined as 75%. On to `COC[C@H]1OC(OCc2ccc(Cl)cc2)[C@H](NC(=O)CCCNC(=N)N)[C@@H](OCc2ccc3ccccc3c2)[C@@H]1O` (stereo partly shown) [Compound 160], for which, in assay [1], the “SSTR5 Inhib 0.5 uM %” value worked out at 40% and the “SSTR5 Inhib 10 uM %” value came to 74%. Consider `CO[C@H]1[C@H](O)[C@@H](COCc2ccc(-c3ccccc3)cc2)OC(OCc2ccc3ccccc3c2)[C@@H]1NC(=O)CCCN` (stereo partly shown) [Compound 161], for which, in assay [1], the “SSTR5 Inhib 0.5 uM %” value was 51% and the “SSTR5 Inhib 10 uM %” value is reported as 74%. On to `COC[C@H]1OC(OCc2ccccc2)[C@H](NC(=O)CNC(=N)N)[C@H](OCc2ccc3ccccc3c2)[C@@H]1O` (stereo partly shown) [Compound 162], for which, in assay [1], the “SSTR5 Inhib 0.5 uM %” value worked out at 30% and the “SSTR5 Inhib 10 uM %” value is given as 74%. With `COC[C@H]1OC(OCc2ccccc2)[C@H](NC(=O)CCN)[C@H](OCc2ccccc2)[C@@H]1O` (stereo partly shown) [Compound 163], in assay [1], the “SSTR5 Inhib 0.5 uM %” value is 34% and the “SSTR5 Inhib 10 uM %” value worked out at 73%.

`COC[C@H]1OC(OCc2ccc(Cl)cc2)[C@H](NC(=O)CCCN)[C@@H](OCc2ccccc2)[C@@H]1O` (stereo partly shown) [Compound 164]: in assay [1], the “SSTR5 Inhib 0.5 uM %” value is 39% and the “SSTR5 Inhib 10 uM %” value is 73%. For `COC[C@H]1OC(OCc2ccccc2)[C@H](NC(=O)CCCNC(=N)N)[C@@H](OCc2ccc(-c3ccccc3)cc2)[C@@H]1O` (stereo partly shown) [Compound 165], in assay [1], the “SSTR5 Inhib 0.5 uM %” value is on record as 37% and the “SSTR5 Inhib 10 uM %” value came out at 73%.

As to `COC[C@H]1OC(OCCc2ccccc2)[C@H](NC(=O)CCNC(=N)N)[C@@H](OCc2ccc(Cl)cc2)[C@@H]1O` (stereo partly shown) [Compound 166], in assay [1], the “SSTR5 Inhib 0.5 uM %” value is 36% and the “SSTR5 Inhib 10 uM %” value is reported as 73%. As for `CSC1O[C@H](COCc2ccc(Cl)cc2)[C@@H](O)[C@@H](OCc2ccc3ccccc3c2)[C@H]1NC(=O)CN` (stereo partly shown) [Compound 167], in assay [1], the “SSTR5 Inhib 0.5 uM %” value was determined as 43% and the “SSTR5 Inhib 10 uM %” value is listed as 73%. The matching figures for `COC[C@H]1OC(OCCc2ccccc2)[C@H](NC(=O)CCCNC(=N)N)[C@@H](OCc2ccc(Cl)cc2)[C@@H]1O` (stereo partly shown) [Compound 168]: 47% and 72%. Take `COC1C(O)C(COCc2ccc(-c3ccccc3)cc2)OC(OCc2ccc3ccccc3c2)C1NC(=O)CCNC(=N)N` (stereo not shown) [Compound 169]: in assay [1], the “SSTR5 Inhib 0.5 uM %” value is 27% and the “SSTR5 Inhib 10 uM %” value came to 72%.

Consider `COC[C@H]1OC(OCc2ccc3ccccc3c2)[C@H](NC(=O)CCNC(=N)N)[C@@H](OCc2ccccc2)[C@@H]1O` (stereo partly shown) [Compound 170], for which, in assay [1], the “SSTR5 Inhib 0.5 uM %” value worked out at 29% and the “SSTR5 Inhib 10 uM %” value stood at 72%.

Consider `COC1C(O)C(COCc2ccc(-c3ccccc3)cc2)OC(OCc2ccccc2)C1NC(=O)CCCNC(=N)N` (stereo not shown) [Compound 171], for which, in assay [1], the “SSTR5 Inhib 0.5 uM %” value is listed as 44% and the “SSTR5 Inhib 10 uM %” value is 72%. The matching figures for `COC[C@H]1OC(OCc2ccccc2)[C@H](NC(=O)CCNC(=N)N)[C@@H](OCc2ccc(-c3ccccc3)cc2)[C@@H]1O` (stereo partly shown) [Compound 172]: 21% and 72%.

Regarding `COC1C(O)C(COCc2ccc3ccccc3c2)OC(OCc2ccc(Cl)cc2)C1NC(=O)CNC(=N)N` (stereo not shown) [Compound 173], in assay [1], the “SSTR5 Inhib 0.5 uM %” value amounted to 47% and the “SSTR5 Inhib 10 uM %” value stood at 71%. Consider `COC[C@H]1OC(OCc2ccc3ccccc3c2)[C@H](NC(=O)CNC(=N)N)[C@H](OCc2ccc3ccccc3c2)[C@@H]1O` (stereo partly shown) [Compound 174], for which, in assay [1], the “SSTR5 Inhib 0.5 uM %” value amounted to 31% and the “SSTR5 Inhib 10 uM %” value came to 71%. Regarding `COC[C@H]1OC(OCc2ccc(Cl)cc2)[C@H](NC(=O)CCCNC(=N)N)[C@H](OCc2ccccc2)[C@@H]1O` (stereo partly shown) [Compound 176], in assay [1], the “SSTR5 Inhib 0.5 uM %” value came out at 37% and the “SSTR5 Inhib 10 uM %” value is on record as 71%. For `COC1C(O)C(COCc2ccc(-c3ccccc3)cc2)OC(OCc2ccc(Cl)cc2)C1NC(=O)CNC(=N)N` (stereo not shown) [Compound 177], in that order: 47% and 71%. The matching figures for `COC[C@H]1OC(OCc2ccc(-c3ccccc3)cc2)[C@H](NC(=O)CCCNC(=N)N)[C@@H](OCc2ccc3ccccc3c2)[C@@H]1O` (stereo partly shown) [Compound 178]: 39% and 71%.

Take `CO[C@H]1[C@H](O)[C@@H](COCc2ccc(-c3ccccc3)cc2)OC(OCc2ccc(-c3ccccc3)cc2)[C@@H]1NC(=O)CCCN` (stereo partly shown) [Compound 179]: in assay [1], the “SSTR5 Inhib 0.5 uM %” value worked out at 29% and the “SSTR5 Inhib 10 uM %” value worked out at 70%. Consider octeotride [reference compound], for which, in assay [2], the “Effect on the CAM vasculature” value is on record as “did not appear to have any significant effect”.
